The values that follow come from US12612411B1, “Imidazopyrazine derivatives, process for preparation thereof, and their uses as luciferins” (INSTITUT PASTEUR, priority 2017, dated 2026).

The experiment has as its target T1, nanoKAZ luciferase (Oplophorus gracilirostris, UniProt Q9GV45, A31E/A60N/A81I/F95D/I117V/K70R/L54V/L99Q/M102K/N193R/P142E/Q151K/Q38R/Q45L/V71I/Y165I).
T1 construct: luciferase catalytic domain (nanoKAZ, 19 kDa) from the Oplophorus-derived luciferase; host or cells: cell-free: 1-Step Human Coupled IVT Kit, pT7CFE1-based vector
In words: In vitro bioluminescence screening of imidazo[1,2-a]pyrazin-3(7H)-ones with nanoKAZ expressed in vitro (96-well luminometer, 2 h kinetic). The class given is biochemical. The following applies: furimazine = 1. How it is done: General protocol for the generation of solutions of imidazo[1,2-a]pyrazin-3(7H)-one Q by acidic hydrolysis of imidazo[1,2-a]pyrazin-3-yl acetate derivatives P. The considered acetate P (1 mg) was dissolved in DMSO (0.2 mL) and then diluted by adding a solution of acidic ethanol (0.3 ml) made from the addition of 37% hydrochloric acid (100 μl) on 100% ethanol (12 mL). This 0.5 mL solution was incubated at 50° C. for 2 hours to give a stock solution which was then stored at −80° C. […] Nota: these conditions are only adapted to the hydrolysis of the protecting group (as defined above) of the oxygen on position 2 of the imidazo[1,2-a]pyrazine ring system and not to the hydrolysis of any additional acetyl groups eventually present elsewhere on the substrate of this reaction.
The representative bioluminescence curves shown in the FIG. 2 provided an assessment for furimazine (Q-1), 8-benzyl-2-(furan-2-ylmethyl)-6-(4-hydroxyphenyl)imidazo[1,2-a]pyrazin-3 (7/1)-one (Q-80), 8-(2-fluorobenzyl)-2-(furan-2-ylmethyl)-6-phenylimidazo[1,2-a]pyrazin-3(7H)-one (Q-84), and 8-(2-fluorobenzyl)-2-((5-methylfuran-2-yl)methyl)-6-phenylimidazo[1,2-a]pyrazin-3(7H)-one (Q-85) was obtained using a luciferase expressed in vitro as described in the following. The nanoKAZ DNA template was cloned into Thermo Scientific pT7CFE1-based vector and nanoKAZ was expressed using ThermoFisher Scientific 1-Step Human Coupled IVT Kit—DNA (ref. 88881) according to the manufacturer instructions. The resulting reaction mix was diluted 400 times in buffer (DPBS (Gibco)+0.1% (v/v) Tween 20) and conserved at −80° C. The screening of the imidazo[1,2-a]pyrazin-3(7H)-ones was performed in 96 well plates using 50 μL/well of a 1/20 dilution in DPBS (Gibco)+0.1% (v/v) Tween 20 of the nanoKAZ solution.
To illustrate the bioluminescence properties improvement achieved for many of the imidazo[1,2-a]pyrazin-3(7H)-ones described here, four values are provided in Table 1: maximum intensity (V1), signal half-life (V2), area under the curve for ten minutes (V3), and area under the curve for two hours (V4), normalized using furimazine (Q-1) as a reference.
The bioluminescence properties of the tested compounds are considered to be improved when at least one of the values V1-V4 is above 1, and when none of the V1-V4 values is 0.05 or below.
By following the hydrolysis protocol described above, the following imidazo[1,2-a]pyrazin-3(7H)-ones luciferins Q were made in situ from the corresponding O-protected imidazo[1,2-a]pyrazines P and evaluated for their bioluminescence properties (maximum intensity (V1), signal half-life (V2), area under the curve for […], normalized using furimazine (Q-1) as a reference): […]

Where [1] appears, read: second table, luciferins made in situ from O-protected P.

T1 sequence (Q9GV45 other isoform, or with tags, fused parts or gaps with the stated changes): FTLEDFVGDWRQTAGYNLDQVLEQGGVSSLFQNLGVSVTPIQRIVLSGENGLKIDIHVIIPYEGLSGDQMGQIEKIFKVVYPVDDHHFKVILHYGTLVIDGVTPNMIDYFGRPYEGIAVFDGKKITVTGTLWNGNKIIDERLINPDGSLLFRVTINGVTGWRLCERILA

Take `O=c1c(Cc2ccccc2)nc2c(Cc3cccc(F)c3)[nH]c(-c3ccccc3)cn1-2` [Q-73, 2-benzyl-8-(3-fluorobenzyl)-6-phenylimidazo[1,2-a]pyrazin-3(7H)-one]: for the setting “Table 1”, the “V1: maximum intensity, normalized using furimazine (Q-1) as a reference” value (“V1: maximum intensity, normalized” for short) is given as 1.12; the “V3: area under the curve for ten minutes, normalized using furimazine (Q-1) as a reference” value stood at 1.19; the “V4: area under the curve for two hours, normalized using furimazine (Q-1) as a reference” value turned out to be 0.92.
`O=c1c(Cc2ccccc2)nc2c(Cc3ccccc3)[nH]c(-c3ccc(O)cc3)cn1-2` [Q-75, 2,8-dibenzyl-6-(4-hydroxyphenyl)imidazo[1,2-a]pyrazin-3(7H)-one, reference compound]: where the note is “Table 1”, the “V1: maximum intensity, normalized” value is listed as 2.03; the “V3: area under the curve for ten minutes, normalized using furimazine (Q-1) as a reference” value amounted to 0.45; the “V4: area under the curve for two hours, normalized using furimazine (Q-1) as a reference” value was found to be 0.11.
With `O=c1c(Cc2ccco2)nc2c(Cc3ccccc3)[nH]c(-c3ccc(O)cc3)cn1-2` [Q-80, 8-benzyl-2-(furan-2-ylmethyl)-6-(4-hydroxyphenyl)imidazo[1,2-a]pyrazin-3(7H)-one, reference compound], where the note is “Table 1”, the “V1: maximum intensity, normalized” value worked out at 3.06; the “V3: area under the curve for ten minutes, normalized using furimazine (Q-1) as a reference” value amounted to 0.79; the “V4: area under the curve for two hours, normalized using furimazine (Q-1) as a reference” value was 0.14.
With `O=c1c(Cc2ccco2)nc2c(Cc3cccc(F)c3)[nH]c(-c3ccccc3)cn1-2` [Q-81, 8-(3-fluorobenzyl)-2-(furan-2-ylmethyl)-6-phenylimidazo[1,2-a]pyrazin-3(7H)-one], under “Table 1”, the “V1: maximum intensity, normalized” value worked out at 0.82; the “V3: area under the curve for ten minutes, normalized using furimazine (Q-1) as a reference” value is 0.92; the “V4: area under the curve for two hours, normalized using furimazine (Q-1) as a reference” value is recorded as 1.31.
Consider `Cc1cccc(Cc2nc3c(Cc4ccccc4F)[nH]c(-c4ccccc4)cn-3c2=O)c1` [Q-82, 8-(2-fluorobenzyl)-2-(3-methylbenzyl)-6-phenylimidazo[1,2-a]pyrazin-3(7H)-one], for which, under “Table 1”, the “V1: maximum intensity, normalized” value was found to be 1.36; the “V3: area under the curve for ten minutes, normalized using furimazine (Q-1) as a reference” value is on record as 1.38; the “V4: area under the curve for two hours, normalized using furimazine (Q-1) as a reference” value was found to be 0.84.
Consider `COc1cccc(Cc2nc3c(Cc4ccccc4F)[nH]c(-c4ccccc4)cn-3c2=O)c1` [Q-83, 8-(2-fluorobenzyl)-2-(3-methoxybenzyl)-6-phenylimidazo[1,2-a]pyrazin-3(7H)-one], for which, under “Table 1”, the “V1: maximum intensity, normalized” value is on record as 1.46; the “V3: area under the curve for ten minutes, normalized using furimazine (Q-1) as a reference” value came to 1.49; the “V4: area under the curve for two hours, normalized using furimazine (Q-1) as a reference” value came to 1.12.
Take `O=c1c(Cc2ccco2)nc2c(Cc3ccccc3F)[nH]c(-c3ccccc3)cn1-2` [Q-84, 8-(2-fluorobenzyl)-2-(furan-2-ylmethyl)-6-phenylimidazo[1,2-a]pyrazin-3(7H)-one]: under “Table 1”, the “V1: maximum intensity, normalized” value amounted to 0.84; the “V3: area under the curve for ten minutes, normalized using furimazine (Q-1) as a reference” value was 0.91; the “V4: area under the curve for two hours, normalized using furimazine (Q-1) as a reference” value is listed as 1.18.
For `Cc1ccc(Cc2nc3c(Cc4ccccc4F)[nH]c(-c4ccccc4)cn-3c2=O)o1` [Q-85, 8-(2-fluorobenzyl)-2-((5-methylfuran-2-yl)methyl)-6-phenylimidazo[1,2-a]pyrazin-3(7H)-one] the same measures were 2.3, 2.4 and 1.81.
Turning to `CCc1ccc(Cc2nc3c(Cc4ccccc4F)[nH]c(-c4ccccc4)cn-3c2=O)o1` [Q-96, 2-((5-ethylfuran-2-yl)methyl)-8-(2-fluorobenzyl)-6-phenylimidazo[1,2-a]pyrazin-3(7H)-one], for the setting “Table 1”, the “V1: maximum intensity, normalized” value turned out to be 2.51; the “V3: area under the curve for ten minutes, normalized using furimazine (Q-1) as a reference” value amounted to 2.68; the “V4: area under the curve for two hours, normalized using furimazine (Q-1) as a reference” value is 1.98.
For the compound `Cc1ccc(Cc2nc3c(Cc4cccc(F)c4)[nH]c(-c4ccccc4)cn-3c2=O)o1` [Q-97, 8-(3-fluorobenzyl)-2-((5-methylfuran-2-yl)methyl)-6-phenylimidazo[1,2-a]pyrazin-3(7H)-one], where the note is “Table 1”, the “V1: maximum intensity, normalized” value turned out to be 2.04; the “V3: area under the curve for ten minutes, normalized using furimazine (Q-1) as a reference” value was 2.20; the “V4: area under the curve for two hours, normalized using furimazine (Q-1) as a reference” value was 2.04.
As for `Cc1ccc(Cc2nc3c(Cc4ccccc4Cl)[nH]c(-c4ccccc4)cn-3c2=O)o1` [Q-98, 8-(2-chlorobenzyl)-2-((5-methylfuran-2-yl)methyl)-6-phenylimidazo[1,2-a]pyrazin-3(7H)-one], under “Table 1”, the “V1: maximum intensity, normalized” value was 1.18; the “V3: area under the curve for ten minutes, normalized using furimazine (Q-1) as a reference” value is 1.28; the “V4: area under the curve for two hours, normalized using furimazine (Q-1) as a reference” value is on record as 1.20.
For `CCc1ccc(Cc2nc3c(Cc4cccc(F)c4)[nH]c(-c4ccccc4)cn-3c2=O)o1` [Q-99, 2-((5-ethylfuran-2-yl)methyl)-8-(3-fluorobenzyl)-6-phenylimidazo[1,2-a]pyrazin-3(7H)-one] the same measures were 1.99, 2.13 and 2.08.
As for `Cc1cccc(Cc2nc3c(Cc4cccc(F)c4)[nH]c(-c4ccccc4)cn-3c2=O)c1` [Q-100, 8-(3-fluorobenzyl)-2-(3-methylbenzyl)-6-phenylimidazo[1,2-a]pyrazin-3(7H)-one], under “Table 1”, the “V1: maximum intensity, normalized” value turned out to be 1.25; the “V3: area under the curve for ten minutes, normalized using furimazine (Q-1) as a reference” value turned out to be 1.33; the “V4: area under the curve for two hours, normalized using furimazine (Q-1) as a reference” value was 1.04.
With `Cc1ccc(Cc2nc3c(Cc4cccc(F)c4)[nH]c(-c4ccccc4F)cn-3c2=O)o1` [Q-105, 8-(3-fluorobenzyl)-6-(2-fluorophenyl)-2-((5-methylfuran-2-yl)methyl)imidazo[1,2-a]pyrazin-3(7H)-one], under “second table”, the “V3: area under the curve for 2 hours, normalized using furimazine (Q-1) as a reference” value is 2.01 and the “V4: area under the curve for ten minutes, normalized using furimazine (Q-1) as a reference” value is on record as 1.72. In addition, under setting [1], the “V1: maximum intensity, normalized” value was determined as 2.04.
Turning to `O=c1c(Cc2ccco2)nc2c(Cc3cccc(F)c3F)[nH]c(-c3ccccc3)cn1-2` [Q-107, 8-(2,3-difluorobenzyl)-2-(furan-2-ylmethyl)-6-phenylimidazo[1,2-a]pyrazin-3(7H)-one], where the note is “second table”, the “V3: area under the curve for 2 hours, normalized using furimazine (Q-1) as a reference” value amounted to 1.04 and the “V4: area under the curve for ten minutes, normalized using furimazine (Q-1) as a reference” value was 1.27. Besides, under setting [1], the “V1: maximum intensity, normalized” value was found to be 1.03.
As to `Cc1ccc(Cc2nc3c(Cc4cccc(F)c4F)[nH]c(-c4ccccc4)cn-3c2=O)o1` [Q-108, 8-(2,3-difluorobenzyl)-2-((5-methylfuran-2-yl)methyl)-6-phenylimidazo[1,2-a]pyrazin-3(7H)-one], for the setting “second table”, the “V3: area under the curve for 2 hours, normalized using furimazine (Q-1) as a reference” value amounted to 3.09 and the “V4: area under the curve for ten minutes, normalized using furimazine (Q-1) as a reference” value is 2.1. Moreover, the “V1: maximum intensity, normalized” value under setting [1] is 3.15.
The like results for `O=c1c(Cc2ccccc2)nc2c(Cc3cccc(F)c3F)[nH]c(-c3ccccc3)cn1-2` [Q-117, 2-benzyl-8-(2,3-difluorobenzyl)-6-phenylimidazo[1,2-a]pyrazin-3(7H)-one] were, in that order, 1.94, 0.7 and 2.31.
On to `Cc1ccc(Cc2nc3c(Cc4c(F)cccc4F)[nH]c(-c4ccccc4)cn-3c2=O)o1` [Q-121, 8-(2,6-difluorobenzyl)-2-((5-methylfuran-2-yl)methyl)-6-phenylimidazo[1,2-a]pyrazin-3(7H)-one], for which, for the setting “second table”, the “V3: area under the curve for 2 hours, normalized using furimazine (Q-1) as a reference” value came out at 1.43 and the “V4: area under the curve for ten minutes, normalized using furimazine (Q-1) as a reference” value was 1.37. Besides, under setting [1], the “V1: maximum intensity, normalized” value came out at 1.41.
